Experimental data reported in article PMC9643419 (Nature Communications, 2022).
pIC50: −log10 of the molar value.

Columns and labels:
TEAD2 = TEAD2 (Homo sapiens, UniProt Q15562); assay: in vitro autopalmitoylation of recombinant TEAD2 with alkyne palmitoyl-CoA, click/streptavidin blot; format: biochemical
TEAD1 = TEAD1 (Homo sapiens, UniProt P28347); assay: cell-based TEAD1 palmitoylation (alkyne palmitic acid labelling, HEK293A)
TEAD4 = TEAD4 (Homo sapiens, UniProt Q15561); assay: TEAD4 biochemical palmitoylation assay
TEAD4, sequence (Q15561 whole entry): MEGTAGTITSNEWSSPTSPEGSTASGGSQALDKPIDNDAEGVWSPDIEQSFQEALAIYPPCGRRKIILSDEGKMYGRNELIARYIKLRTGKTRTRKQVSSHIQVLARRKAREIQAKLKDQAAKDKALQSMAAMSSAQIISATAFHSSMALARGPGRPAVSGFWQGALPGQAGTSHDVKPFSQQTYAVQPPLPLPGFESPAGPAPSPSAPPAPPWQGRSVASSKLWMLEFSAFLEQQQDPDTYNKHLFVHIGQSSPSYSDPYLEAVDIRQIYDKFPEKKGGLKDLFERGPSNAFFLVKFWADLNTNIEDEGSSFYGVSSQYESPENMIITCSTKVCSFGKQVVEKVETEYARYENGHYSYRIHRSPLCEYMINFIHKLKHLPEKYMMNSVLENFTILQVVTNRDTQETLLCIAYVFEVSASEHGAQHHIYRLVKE

TEAD1, sequence (P28347 whole entry): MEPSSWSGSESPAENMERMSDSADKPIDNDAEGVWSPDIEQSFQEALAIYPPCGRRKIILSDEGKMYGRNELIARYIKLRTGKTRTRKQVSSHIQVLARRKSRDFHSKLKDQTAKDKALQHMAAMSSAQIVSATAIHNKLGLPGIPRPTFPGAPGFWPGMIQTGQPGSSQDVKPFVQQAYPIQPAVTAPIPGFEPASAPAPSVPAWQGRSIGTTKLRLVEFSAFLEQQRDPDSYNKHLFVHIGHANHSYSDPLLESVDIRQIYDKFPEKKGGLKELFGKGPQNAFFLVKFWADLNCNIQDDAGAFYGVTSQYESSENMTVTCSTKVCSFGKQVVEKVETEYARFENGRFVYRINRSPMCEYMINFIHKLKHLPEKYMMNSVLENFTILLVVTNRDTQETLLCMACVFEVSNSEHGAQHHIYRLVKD
TEAD2, sequence (Q15562 217-447): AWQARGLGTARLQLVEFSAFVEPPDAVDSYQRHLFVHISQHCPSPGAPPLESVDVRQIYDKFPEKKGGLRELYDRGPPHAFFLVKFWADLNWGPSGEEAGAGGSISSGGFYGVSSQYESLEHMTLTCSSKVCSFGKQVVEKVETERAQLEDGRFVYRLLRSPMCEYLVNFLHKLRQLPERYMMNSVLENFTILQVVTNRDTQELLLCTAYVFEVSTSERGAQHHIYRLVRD

O=C(CSc1nncs1)Nc1ccc(C23CC4CC(CC(C4)C2)C3)cc1 [MGH-CP28, 2-((1,3,4-thiadiazol-2-yl)thio)-N-(4-((1 S,3 R,5 S)-adamantan-1-yl)phenyl)acetamide]
pIC50 (TEAD2): 6.21

O=C(CSc1nnc[nH]1)Nc1ccc(C23CC4CC(CC(C4)C2)C3)cc1 [MGH-CP1, 2-((4H−1,2,4-triazol-3-yl)thio)-N-(4-((1 S,3 R,5 S)-adamantan-1-yl)phenyl)acetamide]
cell-based TEAD1 palmitoylation (alkyne palmitic acid labelling, HEK293A) (TEAD1): MGH-CP12 inhibits TEAD1 palmitoylation in cells more potently than MGH-CP1 (Fig. 1d)

O=C(CSc1nnc[nH]1)Nc1ccc(C23CC4CC(CC(C4)C2)C3)cc1Br [MGH-CP12, 2-((4H−1,2,4-triazol-3-yl)thio)-N-(4-((1 S,3 R,5 S)-adamantan-1-yl)−2-bromophenyl)acetamide]
pIC50 (TEAD2): 6.97 | pIC50 (TEAD4): 6.07 | cell-based TEAD1 palmitoylation (alkyne palmitic acid labelling, HEK293A) (TEAD1): MGH-CP12 inhibits TEAD1 palmitoylation in cells more potently than MGH-CP1 (Fig. 1d)
